The text below walks through data of patent US5478828A, “Piperazinyl-and piperidinyl-cyclohexanols” (Bristol-Myers Squibb Company, priority 1995, dated 1995).

The target in one assay is 5-HT1A receptor. The assay is described as follows: In vitro receptor binding, 5-HT1A. The protocol:
In vitro IC50 test values for binding to the 5-HT1A receptor were determined for representative compounds of Formula I by the method of S. J. Peroutka, Brain Research 344, 167 (1985); with only minor modifications. Test IC50 values lower than 100 nM are considered to reflect activity at the 5-HT1A receptor.

In assay [1] the test system is rat social interaction task (anxiety). The assay is described as follows: Rat social interaction task (in vivo model of anxiety). Conditions: given subcutaneously.
For the next assay, the target named is T1, D2 receptor (Bos taurus, UniProt P20288).
T1 construct: from tissue
T1 sequence (P20288 whole entry): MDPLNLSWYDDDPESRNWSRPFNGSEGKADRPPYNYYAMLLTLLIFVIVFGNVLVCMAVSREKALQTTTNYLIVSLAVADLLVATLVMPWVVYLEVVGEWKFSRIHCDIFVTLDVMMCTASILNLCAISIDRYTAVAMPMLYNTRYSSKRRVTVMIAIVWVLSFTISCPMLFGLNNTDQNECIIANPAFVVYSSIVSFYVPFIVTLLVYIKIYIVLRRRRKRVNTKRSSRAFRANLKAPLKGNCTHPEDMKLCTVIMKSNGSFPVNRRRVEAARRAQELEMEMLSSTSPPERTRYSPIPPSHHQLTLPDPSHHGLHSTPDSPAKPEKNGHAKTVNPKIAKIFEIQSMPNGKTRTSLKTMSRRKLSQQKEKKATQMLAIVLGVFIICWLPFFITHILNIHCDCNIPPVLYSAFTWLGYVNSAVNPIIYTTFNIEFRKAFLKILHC
The assay is described as follows: In vitro receptor binding, D2. Conditions: in vitro; read-out: D2 receptor binding IC50.

Protocol for D2 receptor: In vitro IC50 test values for binding to the D2 receptor were determined for representative compounds of Formula I by the method of Burt, Creese, and Snyder, Molecular Pharmacology 12, 800 (1976); Creese, Burt, and Snyder, Science 196, 326 (1977); and Creese, Burt and Snyder, Science.

Turning to `O[C@]1(c2ccc(F)cc2)CC[C@H](N2CCN(Cc3cc(F)ccc3F)CC2)CC1` [Example 36, Z-1-(4-Fluorophenyl)-4-[4-[(2,5-difluorophenyl)methyl]-1-piperazinyl]cyclohexanol], the IC50 on 5-HT1A receptor came out at 34.7 nM. In addition, the “Rat social interaction task, active doses” value in assay [1] was 0.01-10 mpk.

Regarding `O[C@]1(c2ccc3c(c2)OCCO3)CC[C@H](N2CCN(Cc3ccccc3)CC2)CC1` [Example 20-Z, Z-1-(1,4-Benzodioxan-6-yl)-4-[4-(phenylmethyl)-1-piperazinyl]cyclohexanol], the 50% inhibitory concentration (IC50) at 5-HT1A receptor was found to be 9.9 nM; on D2 receptor it was 15200 nM.

For the compound `Cc1ccccc1CN1CCN([C@H]2CC[C@](O)(c3ccc4c(c3)OCO4)CC2)CC1` [Example 24, Z-1-(1,3-Benzodioxol-5-yl)-4-[4-[(2-methylphenyl)methyl]-1-piperazinyl]cyclohexanol], the IC50 at 5-HT1A receptor was 4.2 nM; at D2 receptor, 2550 nM.
